# Experimental data from patent US20250064954A1, “STEROIDS AND ANTIBODY-CONJUGATES THEREOF” (REGENERON PHARMACEUTICALS, INC., priority 2018, published 2025).
# pEC50: −log10 of the molar value.
# How the values were obtained:
# [1] = target: T1, Glucocorticoid Receptor (GR) (Homo sapiens, UniProt P04150); assay: Cell based GR responsive luciferase reporter assay in HEK293/UASLuc/pBIND-GR cells; conditions: ratio of highest RLU on the dose response curve to RLU in untreated wells, 48 hours
# T1 construct: host or cells: HEK293 stably expressing human full length PRLR
# T1 sequence (P04150 524-758 limits assumed): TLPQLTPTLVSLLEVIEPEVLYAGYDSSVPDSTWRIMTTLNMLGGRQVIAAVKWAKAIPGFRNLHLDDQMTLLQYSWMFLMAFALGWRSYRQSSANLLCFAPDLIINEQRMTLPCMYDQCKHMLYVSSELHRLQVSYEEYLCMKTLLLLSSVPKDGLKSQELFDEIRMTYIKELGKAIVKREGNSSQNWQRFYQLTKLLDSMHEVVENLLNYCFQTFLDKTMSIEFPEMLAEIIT
# [2] = target: T1, Glucocorticoid Receptor (GR); assay: as above; conditions: for pEC50: HEK293/UASLuc/pBIND-GR cells, 48 hours; for EC50 values after spacer attachment relative to parent steroid: comparison
# Text: A cell-based GR responsive luciferase reporter assay was used to test the GR agonist activity of compounds described herein. In this assay, the following materials were used.
# To generate the assay cell line, HEK293 cells were co-transfected with the pBind-GR (Promega, Cat #E158A) and pGL4.35 [Luc2P/9xGAL4UAS/Hygro] (Promega, Cat #E137A) vectors. The pBind-GR vector expresses a fusion protein consisting of the yeast Gal4DNA-binding domain and the GR ligand binding domain, that can bind to the Gal4 upstream activation sequence (UAS) in the luciferase expression vector and induce luciferase expression following GR agonist binding. The cells were selected for at least 2 weeks in G418+ hygromycin. The resulting cell line is referred to as HEK293/UASLuc/pBIND-GR.
# Three-fold serial dilutions of test compounds were prepared in 100% DMSO, transferred to fresh assay media, and added to the cells. […] The last well in the plate served as blank control containing only the assay media and 0.2% DMSO (untreated well) and was plotted as a continuation of the 3-fold serial dilution.
# Forty-eight hours later, luciferase activity was determined after the addition of One-Glo™ reagent (Promega, Cat #E6130). Relative light units (RLUs) were measured on an Envision luminometer (PerkinElmer) and EC50 values were determined using a four-parameter logistic equation over a 10-point dose response curve (GraphPad Prism). The signal to noise (S/N) was determined by taking the ratio of the highest RLU on the dose response curve to the RLU in the untreated wells.
# [3] = Plasma stability in human plasma; format: in vitro ADME; conditions: 37° C.; for Percent Remaining (%) 1 h / Percent Remaining (%) 8 h / Percent Remaining (%) 24 h / Percent Remaining (%) […]: BQL: Below Quantitation Limit
# Protocol: Plasma stability can be measured according to the following protocol.
# Preheated 0.05 M sodium phosphate and 0.07 M NaCl buffer, pH 7.4: 14.505 g/L Na2HPO4_12H2O, 1.483 g/L NaH2PO4_2H2O and 4.095 g/L NaCl were dissolved in deionized water. The basic solution was then titrated with the phosphoric acid to pH 7.40 and stored refrigerated for up to 7 days. pH was checked on the day of experiment and adjusted if outside specification of 7.4+/−0.1.
# Plasma preparation: frozen plasma were thawed by placing at 37° C. The plasma was centrifuged at 3,000 rpm for 8 minutes to remove clots, pipetted and the supernatant was pooled as the plasma to be used in the experiment. The pH of the plasma was checked and recorded and only used within the range of pH 7.4 to pH 8. If higher than pH 8, the plasma was discarded. The initial pH of the plasma was not adjusted to pH 7.4 with acid or by bubbling with CO2. By using a 5% CO2 incubator and PBS buffer, a pH of 7.4 was reached after a 4 hour equilibrium dialysis time. The plasma was put on ice until used.
# Test compounds and reference compounds spiking solution. 0.5 mM test compounds spiking solution A: 10 μL of 10 mM test compounds stock solution was added to 190 μL DMSO. 0.02 mM spiking solution B: 40 μL of spiking solution A were added to 960 μL of 0.05 mM Sodium phosphate buffer with 0.5% BSA.
# The plasma and spiking solution B were pre-warmed at 37° C. for 5 min. 10 μL of pre-warmed spiking solution B was added into the wells designated for all the time points (0, 0.25, 1, 8, 24 h). For 0-min, 400 μL of ACN containing 1S was added to the wells of 0-min plate and then 90 μL of plasma was added. 90 μL of pre-warmed plasma was added into the wells designated for the time points (0.25, 1, 8, 24 h), and start timing. At 0.25, 1, 8, 24 h, 400 μL of ACN containing IS was added to the wells of corresponding plates, respectively, to stop the reaction. After quenching, the plates were shaken on a vibrator (IKA, MTS 2/4) for 10 min (600 rpm/min) and then centrifuged at 5594 g for 15 min (Thermo Multifuge×3R). 50 μL of the supernatant from each well was transferred into a 96-well sample plate containing 50 μL of ultra pure water (Millipore, ZMQS50F01) for LC/MS analysis.
# [4] = Solubility of payloads and linker-payloads; conditions: aqueous DMSO (20%)
smiles,measurement,setting,value
"CCCC1O[C@@H]2C[C@H]3[C@@H]4C[C@H](F)C5=CC(=O)C=C[C@]5(C)[C@@]4(F)[C@@H](O)C[C@]3(C)[C@]2(C(=O)CO)O1 (stereo in doubt) [Compound 100, (1S,2S,4R,8S,9S,11S,12R,13S,19S)-12,19-Difluoro-11-hydroxy-8-(2-hydroxyacetyl)-9,13-dimethyl-6-propyl-5,7-dioxapentacyclo[10.8.0.0^2,^9.0^4,^8.0^13,^18]icosa-14,17-dien-16-one]",S/N,[1],14.5
same,fold more potent than 1a (budesonide),[2]; EC50 comparison,5.6 fold
same,fold more potent than Dexamethasone,[2]; EC50 comparison,5.9 fold
same,pEC50,[2],10.26
"CCCC1O[C@@H]2C[C@H]3[C@@H]4CCC5=CC(=O)C=C[C@]5(C)[C@H]4[C@@H](O)C[C@]3(C)[C@]2(C(=O)COCNC(=O)CN)O1 (stereo partly drawn) [Compound 103a, 2-Amino-N-({2-[(1S,2S,4R,8S,9S,11S,12S,13R)-11-hydroxy-9,13-dimethyl-16-oxo-6-propyl-5,7-dioxapentacyclo[10.8.0.0^2,^9.0^4,^8.0^13,^18]icosa-14,17-dien-8-yl]-2-oxoethoxy}methyl)acetamide]",solubility,physchem,< 20 µg/mL
same,S/N,[1],14.6
same,pEC50,[2],9.32
same,EC50 values after spacer attachment relative to parent steroid,[2],comparable to 1a
same,half-life at 2 µM,[3],16.8 h
same,Percent Remaining (%) 0 h,[3],100.00%
same,Percent Remaining (%) 1 h,[3],96.48%
same,Percent Remaining (%) 8 h,[3],78.87%
same,Percent Remaining (%) 24 h,[3],38.03%
same,Percent Remaining (%) […],[3],107.04%
"CCCC1O[C@@H]2C[C@H]3[C@@H]4C[C@H](F)C5=CC(=O)C=C[C@]5(C)[C@@]4(F)[C@@H](O)C[C@]3(C)[C@]2(C(=O)COCNC(=O)CN)O1 (stereo partly drawn) [Compound 103b, 2-Amino-N-({2-[(1S,2S,4R,8S,9S,11S,12R,13S,19S)-12,19-difluoro-11-hydroxy-9,13-dimethyl-16-oxo-6-propyl-5,7-dioxapentacyclo[10.8.0.0^2,^9.0^4,^8.0^13,^18]icosa-14,17-dien-8-yl]-2-oxoethoxy}methyl)acetamide]",solubility,physchem,< 20 µg/mL
same,S/N,[1],16.6
same,EC50 values after spacer attachment relative to parent steroid,[2],comparable to 100
CCCC1O[C@@H]2C[C@H]3[C@@H]4C[C@H](F)C5=CC(=O)C=C[C@]5(C)[C@@]4(F)[C@@H](O)C[C@]3(C)[C@]2(C(=O)COC(=O)c2ccc(CN)cc2)O1 (some centres unmarked) [Compound 105a],fold less potent than 100,"[2]; EC50 comparison after spacer attachment to 100, text",2.7 fold
CCCC1O[C@@H]2C[C@H]3[C@@H]4CCC5=CC(=O)C=C[C@]5(C)[C@H]4[C@@H](O)C[C@]3(C)[C@]2(C(=O)COCNC(=O)CNC(=O)OCc2ccc(NC(=O)[C@H](CCCNC(N)=O)NC(=O)[C@@H](NC(=O)CCOCCOCCOCCOCCNC(=O)CCC(=O)N3Cc4ccccc4C#Cc4ccccc43)C(C)C)cc2)O1 (some centres unmarked) [LP9],solubility,[4],< 20 µg/mL
CCCC1O[C@@H]2C[C@H]3[C@@H]4C[C@H](F)C5=CC(=O)C=C[C@]5(C)[C@@]4(F)[C@@H](O)C[C@]3(C)[C@]2(C(=O)COCNC(=O)CNC(=O)OCc2ccc(NC(=O)[C@H](CCCNC(N)=O)NC(=O)[C@@H](NC(=O)CCOCCOCCOCCOCCNC(=O)CCC(=O)N3Cc4ccccc4C#Cc4ccccc43)C(C)C)cc2)O1 (some centres unmarked) [LP10],solubility,[4],< 20 µg/mL
CCN(CC)CCOC(=O)c1ccc(N)cc1 [Procaine],half-life at 2 µM,[3],< 0.25 h
same,Percent Remaining (%) 0 h,[3],100.00%
same,Percent Remaining (%) 1 h,[3],BQL
same,Percent Remaining (%) 8 h,[3],BQL
same,Percent Remaining (%) 24 h,[3],BQL
same,Percent Remaining (%) […],[3],BQL
